Measurements taken from patent US4228124A, “Fumigating method and apparatus” (priority 1979, dated 1980).

Assay: effective fugacity rate on heating with hot air current from ring heater and fan (FIG. 1 apparatus)
Format: physicochemical
Conditions: Table 5, Comparative Example 1: without blowing agent
Protocol: This invention will be described below in greater detail with reference to examples, in which the effective fugacity rates of active ingredients are determined by volatilizing the ingredient within a closed container, passing the air within the container through a solvent which completely dissolves the active ingredients, such as benzene, acetone, water, chloroform or dichloromethane to cause the solvent to absorb the vaporized ingredient in the air, concentrating the solvent and subjecting the concentrate to gas chromatography. The fugacity rate is expressed in terms of the ratio in percent of the quantity of the vaporized active ingredient to the quantity of the ingredient initially admixed with a blowing agent.
Each of the specimen mixtures of insecticide and blowing agent listed in Table 2 is placed in an inner case 8 (60 cm^3 in capacity) fitted in an apparatus (15 cm in diameter and 15 cm in height) provided in its passage 2 with the same ring heater 6 as shown in FIG. 1.
The ring heater 6 (power 400 W) and a fan 4 (with 4 blades) are energized to produce a hot air current. The fan 4 is driven at 3000 r.p.m. The mixture is heated for about 5 minutes (up to a temperature of about 300° C.) with the hot air current to thermally decompose the blowing agent and diffuse the vapor of the insecticide. […]

For CC(C)=CC1C(C(=O)OCc2coc(Cc3ccccc3)c2)C1(C)C (stereo not shown) [Specimen 27], the effective fugacity rate was 0.4%.
